From the NIST ThermoML archive (doi:10.1016/j.jct.2005.07.003)
“And” between values parts separate entries of the source, which are not always exact repeats. Equal values may be shown once. ± gives the expanded uncertainty stated by the source.

Test: activity coefficient (dimensionless); of the first substance listed, at infinite dilution; xn = mol fraction of the nth substance listed
Details: 101 kPa, Liquid, Chromatography, x1 = 0

SMILES	activity coefficient (288.15 K)	activity coefficient (298.15 K)	activity coefficient (313.15 K)
C=CCCCCC [1-heptene] + CCCCCCCC[n+]1ccn(C)c1.COCCOCCOS(=O)(=O)[O-]	10.3 and 10.8	10.5 and 10.1	8.51 and 9.33
C#CCCCCC [1-heptyne] + CCCCCCCC[n+]1ccn(C)c1.COCCOCCOS(=O)(=O)[O-]	5.69 and 5.38	4.92 and 5.11	4.7 and 4.67
c1ccccc1 [benzene] + CCCCCCCC[n+]1ccn(C)c1.COCCOCCOS(=O)(=O)[O-]	1.33 ± 0.14	1.33 and 1.46	1.37 and 1.35
C1CCCCCC1 [cycloheptane] + CCCCCCCC[n+]1ccn(C)c1.COCCOCCOS(=O)(=O)[O-]	9.65 and 10.1	9.02 and 8.83	7.53 and 7.45
C1CCCCC1 [cyclohexane] + CCCCCCCC[n+]1ccn(C)c1.COCCOCCOS(=O)(=O)[O-]	8.52 and 8.34	7.86 ± 0.83	6.83 and 6.79
C1CCCCCCC1 [cyclooctane] + CCCCCCCC[n+]1ccn(C)c1.COCCOCCOS(=O)(=O)[O-]	11.2 and 10.3	–	8.74 and 8.65
C1CCCC1 [cyclopentane] + CCCCCCCC[n+]1ccn(C)c1.COCCOCCOS(=O)(=O)[O-]	6.4 and 6.14	5.1 and 5.86	5.24 and 5.16
CCCCCCC [heptane] + CCCCCCCC[n+]1ccn(C)c1.COCCOCCOS(=O)(=O)[O-]	17.9 and 17.4	16.4 and 16	13.5 and 13.3
C=CCCCC [hex-1-ene] + CCCCCCCC[n+]1ccn(C)c1.COCCOCCOS(=O)(=O)[O-]	8.61 and 8.47	8.14 and 8.33	7.47 and 7.74
CCCCCC [hexane] + CCCCCCCC[n+]1ccn(C)c1.COCCOCCOS(=O)(=O)[O-]	14 ± 1.5	12.8 and 12.9	11.9 and 11.8
CO [methanol] + CCCCCCCC[n+]1ccn(C)c1.COCCOCCOS(=O)(=O)[O-]	0.37 and 0.44	0.38 ± 0.05	0.36 and 0.38
C=CCCCCCC [oct-1-ene] + CCCCCCCC[n+]1ccn(C)c1.COCCOCCOS(=O)(=O)[O-]	13.7 and 14	13.1 and 13.2	12 and 11.4
CCCCCCCC [octane] + CCCCCCCC[n+]1ccn(C)c1.COCCOCCOS(=O)(=O)[O-]	22.6 and 22.2	21.1 and 19.7	16.4 ± 1.7
CCCCC [pentane] + CCCCCCCC[n+]1ccn(C)c1.COCCOCCOS(=O)(=O)[O-]	12.6 and 11.6	10.6 and 10.3	10 and 9.5
